Reference: publication PMC10402865, “Fragment-based design, synthesis and biological evaluation of theophylline derivatives as ATAD2 inhibitors in BT-549 cells” (Journal of Enzyme Inhibition and Medicinal Chemistry, 2023)

Key:
[1] = tested on: BT-549 cells; experiment: Cell viability (MTT) assay, anti-proliferative activity; format: cell-based; conditions: for IC50: Homo sapiens, MTT, 24 h, mean ± SD
Protocol: BT-549 cells were seeded at a density of 5 × 10^4 cells/ml in a 96-well plate. Following a 24-h incubation period, the cells were exposed to various concentrations of different compounds for the specified durations. Cell viability was evaluated using an MTT assay.

[2] = tested on: ATAD2, c-Myc, and p-c-Myc^Ser62 in BT-549 cells; experiment: Western blot of ATAD2, c-Myc and p-c-Myc Ser62; format: cell-based; conditions: BT-549 cells, 5, 10, 20 μM, 48h
Protocol: (§1) Cells were exposed to AM879, BAY-850 or compound 19f for the specified time intervals. Both adherent and floating cells were harvested and subsequently resuspended in a lysis buffer, followed by incubation at 4 °C for 1 h. Following centrifugation at 12,000 rpm for 20 min, the protein content of the supernatant was quantified using the BCA protein assay. Then protein were separated by 8–15% SDS-PAGE and transferred onto PVDF membranes. The membranes were blocked with blocking buffer and subjected to primary antibody incubation, followed by incubation with HRP-conjugated secondary antibody. Protein detection was achieved using ECL as the HRP substrate.

[3] = tested on: ATAD2; conditions: cited from earlier work
[4] = target: T1, ATAD2 recombinant bromodomain protein (Homo sapiens, UniProt Q6PL18); experiment: ATAD2 enzymatic assay by TR-FRET technology; format: binding; conditions: TR-FRET; for IC50: mean ± SD, read-out: Kinase inhibitory activity (IC50, μM) ATAD2
T1 sequence (Q6PL18 980-1092 limits assumed): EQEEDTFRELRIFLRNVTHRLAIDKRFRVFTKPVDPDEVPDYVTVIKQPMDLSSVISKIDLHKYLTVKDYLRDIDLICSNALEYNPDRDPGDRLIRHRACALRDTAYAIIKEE
Protocol: The assay was performed by TR-FRET technology using recombinant bromodomain and BET Ligand[8]. The compounds were diluted with indicated folds in 5% DMSO in reaction buffer and 2 µl of the dilution was added to a 20 µl reaction so that the final concentration of DMSO is 0.5% in all of the reactions. The 20 µl reaction mixture consists of the ATAD2 recombinant bromodomain protein, the indicated amount of the inhibitor, ligand, and the reactive dyes. The reaction mixture was incubated for 3 h before reading the TR-FRET signal. Fluorescence signals for both the donor and acceptor dyes were measured using a Tecan Infinite M1000 plate reader. Binding experiments were performed in duplicate at each concentration and the data were analysed using GraphPad Prism.

[5] = tested on: MDA-MB-231 cells; set-up: method as in PMID 32174193; conditions: read-out: antiproliferative activity IC50 in MDA-MB-231 cells; cited from earlier work
[6] = tested on: BT-549 cells; experiment: EdU-488 newly synthesised DNA assay; format: cell-based; conditions: BT-549 cells, 5, 10, 20 μM, 48h
[7] = tested on: BT-549 cells; experiment: Transwell migration assay; format: cell-based; conditions: BT-549 cells, 5, 10, 20 μM, 48h
Protocol: BT-549 cells were seeded into the upper chamber of a Transwell insert at a density of 15,000 cells per well. The cells were treated with either DMSO or compound 19f for 48 h, after which non-migrated cells were removed from the upper surface, while the migrated cells were stained with crystal violet. Then, the cells were washed with PBS and imaged using a phase-contrast microscope.

[8] = tested on: BT-549 cells; experiment: 3D cell culture, cell sphere diameter; format: cell-based
Protocol: For 3D cell culture, 10,000 cells were placed in 96-well spherical plates for 24h and treated with different concentrations of compound 19f, […] or AM879. The diameter of the cell balls was measured by photographing.

[9] = tested on: BT-549 cells; experiment: Colony formation assay; format: cell-based
[10] = tested on: MDA-MB-231 cells; experiment: Cell viability (Figure S1); format: cell-based
[11] = tested on: p-c-Myc^Ser62 in BT-549 cells; experiment: Immunofluorescence of p-c-Myc Ser62; format: cell-based; conditions: 48h
Protocol: To prevent non-specific antibody binding, BT-549 cells were treated with a blocking buffer (PBS +1.5% goat serum) prior to immunofluorescence staining. The cells were subsequently incubated with a p-c-Myc^Ser62 antibody (1:200) diluted in blocking buffer and allowed to incubate overnight at 4 °C. Afterward, the cells were further incubated with fluorescent-labelled secondary antibodies for 1 h at room temperature.

[12] = tested on: BT-549 cells; experiment: Wound healing assay; format: cell-based; conditions: BT-549 cells, 2.5, 5, 10, 20 μM, 48h
[13] = tested on: BT-549 cells; experiment: Apoptosis assay, Annexin-V/PI double staining; format: cell-based; conditions: BT-549 cells, 5, 10, 20 μM, 48h
From the text: To assess apoptosis, BT-549 cells were exposed to varying concentrations of compound 19f, and apoptosis ratios were quantified via Annexin-V/PI double staining.

[14] = tested on: Bax, Bcl-2, Caspase-3, Caspase-8, Caspase-9, and PARP in BT-549 cells; experiment: Western blot of apoptotic marker proteins; format: cell-based; conditions: BT-549 cells, 5, 10, 20 μM, 48h
Protocol: as §1

[15] = tested on: MCF-10A cells; experiment: Cell viability (Figure S1), normal breast cells; format: cell-based
[16] = tested on: MMP-2 and E-cadherin in BT-549 cells; experiment: Western blot of migration markers; format: cell-based; conditions: BT-549 cells, 5, 10, 20 μM, 48h
Protocol: as §1

What does the source list for `CC1=C(C#N)c2nc(N)c(C#N)cc2/C1=C\c1ccc(-c2cc(C(=O)O)ccc2Cl)o1` [AM879]?
IC50 [1]: 4.79 ± 0.52 µM; expression levels of c-Myc and p-c-Myc Ser62 (western blot) [2]: inhibited the expression levels of c-Myc and p-c-Myc^Ser62 in a dose-dependent manner; expression of ATAD2 (western blot) [2]: no significant effect on the expression of ATAD2; IC50 [3]: 3.5 µM; IC50 [4]: 3.49 ± 0.77 µM; IC50 [5]: 2430 nM

Which “anti-proliferative activity in BT-549 cells, in words” value [1] does the source give for `COc1ccc(C(=O)NC2CCCC2)cc1NC(=O)Cn1cnc2c(=O)n(C)c(=O)n(C)c21` [Compound 19f, N-cyclopentyl-3–(2-(1,3-dimethyl-2,6-dioxo-1,2,3,6-tetrahydro-9H-purin-9-yl)acetamido)-4-methoxybenzamide] here?
Its value is “anti-proliferative activity comparable to BAY-850 and AM879”.

And the “antiproliferative activity relative to the positive drug BAY-850” value [1]?
The value was “about one-fold weaker”.

And the IC50 [1]?
The IC50 was 5.43 ± 0.71 µM.

What about the “expression levels of c-Myc and p-c-Myc Ser62 (western blot)” value [2] of the same molecule?
Its value is “inhibited the expression levels of c-Myc and p-c-Myc^Ser62 in a dose-dependent manner”.

What about the “expression of ATAD2 (western blot)” value [2] of the same molecule?
Its value is “no significant effect on the expression of ATAD2”.

What about the “fluorescence intensity of EdU-488” value [6] of the same molecule?
Its value is “reduce the fluorescence intensity of EdU-488 in a dose-dependent manner”.

And the “ATAD2 inhibitory activity, in words” value [4]?
The value was “weaker ATAD2 inhibitory activity compared with BAY-850, but a stronger ATAD2 inhibitory activity than AM879”.

What about the IC50 [4] of the same molecule?
Its IC50 is 0.27 ± 0.05 µM.

What about the migrated cell number [7] of the same molecule?
The migrated cell number was “decreased the migrated cell number in a dose-dependent manner”.

What about the “diameter of 3D tumour cell spheres” value [8] of the same molecule?
Its value is “dose-dependently reduce the diameter of the 3D tumour cell spheres”.

And the colony formation ability [9]?
The colony formation ability was “inhibit the colony formation ability of BT-549 cells in a concentration-dependent manner”.

And the “anti-proliferative activity in MDA-MB-231 cells, in words” value [10]?
Its value is “good anti-proliferative activity”.

What about the “p-c-Myc Ser62 level compared with AM879 and BAY-850” value ([11]; BT-549 cells, 10 μM) of the same molecule?
Its value is “more significant impact on p-c-Myc^Ser62 level than AM879, and a similar result to the BAY-850”.

What about the “fluorescence intensity of p-c-Myc Ser62” value ([11]; BT-549 cells, 5, 10, 20 μM) of the same molecule?
The value was “reduce the fluorescence intensity of p-c-Myc^Ser62 in a dose-dependent manner”.

And the relative wound area [12]?
The relative wound area was “increased the relative wound area in a dose-dependent manner”.

What about the “apoptosis induction, in words” value [13] of the same molecule?
Its value is “induce obvious apoptosis in a dose-dependent manner”.

What about the “cleavage of caspase-8” value [14] of the same molecule?
The value was “the cleavage of caspase-8 was not changed significantly”.

What about the “expression of Bax, cleavage of caspase-3, caspase-9 and PARP” value [14] of the same molecule?
Its value is “promoted the expression of Bax, the cleavage of caspase-3, caspase-9 and PARP”.

What about the “expression of Bcl-2” value [14] of the same molecule?
The value was “the expression of Bcl-2 was significantly decreased”.

And the “cytotoxicity to normal breast MCF-10A cells” value [15]?
Its value is “did not show obvious cytotoxicity”.

What about the “expression of E-cadherin and MMP-2” value [16] of the same molecule?
Its value is “up-regulated the expression of E-cadherin and down-regulated MMP-2”.
